Source: article PMC9247443 (Frontiers in Pharmacology, 2022)

Key:
[1] = target: T1, human S1P1 (Homo sapiens, UniProt P21453); experiment: S1P1-mediated β-arrestin recruitment assay (PathHunter eXpress EDG1 CHO-K1); assay type: cell-based; conditions: for Emax: CHO-K1, read-out: β-arrestin recruitment Intrinsic Activity, human S1P1; for EC50: EDG1(S1P1)/β-arrestin CHO-K1 cells, 90 min, mean ± SEM (n = 3–5) or SD (n = 2)
Method: Human S1P1 β-arrestin assays were carried out using the PathHunter® eXpress EDG1 CHO-K1 β-arrestin GPCR Assay (DiscoverX, Cat# 93-0207E2, including frozen cell stock, assay media, and assay plate). EDG1(S1P1)/β-arrestin CHO-K1 cells were thawed by adding 0.5 ml warm media to the vial. The cells were then transferred to 11.5 ml warm media, seeded at a density of 10,000 cells per well in a 96 well assay plate in a volume of 100 μL per well and incubated overnight in a 37°C CO2 incubator. […] Compounds were then added to the EDG1(S1P1)/β-arrestin CHO-K1 cells—10 μl per well of the 11X stock was added to the 100 ul per well of cells and the plate was incubated for 90 min in a 37°C CO2 incubator. The detection solution was prepared according to the manufacture’s protocol and 55 μl was added to each well of assay plate. The plate was then incubated for 1 h at room temperature before being read on a SpectraMax5 plate reader. Basal β-arrestin recruitment was determined using medium containing DMSO alone.

[2] = target: T2, human S1P3 (Homo sapiens, UniProt Q99500); experiment: [^35S]-GTPγS binding; assay type: biochemical; conditions: mean ± SEM; for EC50: [^35S]-GTPγS binding, CHO cell membranes; for Human S1P3 IA: intrinsic activity relative to maximal S1P response (100%)
T2 construct: membrane preparation
Source text: (§1) Stable clones of Chinese hamster ovary (CHO) cells expressing human S1P1 and S1P5 were generated by transfecting the cells with the N-terminal hemagglutinin-tagged receptor in pcDNA3.1 expression vectors followed by antibiotic selection for S1P1 and S1P5 and picking of clones using cyclic adenosine monophosphate assay, fluorescence-activated flow cytometry using the associated tag as well as functional [^35S]-GTPγS binding assays. Stable clones of CHO cells expressing human S1P2, S1P3, and S1P4 with an N-terminal FLAG tag were purchased from Multispan, Inc. (Hayward, CA, United States; catalog numbers C1051-1, CG1049-1, and CG1052-1 for S1P2, S1P3, and S1P4, respectively). Cells were grown to confluence in adherent culture in 500-cm^2 culture trays before being detached with cell scraper in cell-lifting buffer (10 mM HEPES/154 mM NaCl/6.85 mM ethylenediaminetetraacetic acid [EDTA], pH 7.4) and pelleted by centrifugation for 5 min at 1000 rpm. Cell pellets were then resuspended and homogenized in membrane preparation buffer (10 mM HEPES/10 mM EDTA, pH 7.4) using a Polytron PT 1200E homogenizer (Kinematica, Luzern, Switzerland). To collect the membrane pellet, cell homogenates were centrifuged at 48,000 × g at 4°C for 30 min. After discarding the supernatant, the pellet was rehomogenized and recentrifuged as described above. The final pellet was collected and homogenized in ice-cold resuspension buffer (10 mM HEPES and 0.1 mM EDTA, pH 7.4).
(§2) To quantitate receptor activation and G protein coupling, [^35S]-GTPγS binding assays were performed in 96-well nonbinding surface plates (Corning, New York, New York, United States; catalog number 3604) in a final volume of 200 μl. Test compounds were serial diluted in DMSO directly to the assay plate using the Tecan D300E digital printer in a total volume of 0.4 μl. […] All wells were brought to a total volume of 40 μl with assay buffer, and the reaction was initiated by the addition of 120 μl/well of assay buffer containing a mixture of 40 μg/ml S1P1–S1P5 membranes, 5–50 μM GDP (5 μM for S1P2 and S1P4, 16.67 μM GDP for S1P1 and S1P5, and 50 μM for S1P3), and 2.5 mg/ml of WGA PVT SPA beads (Perkin Elmer catalog number RPNQ0001). Assay plates were sealed and incubated at room temperature with gentle agitation for 30 min before adding 40 μl/well of 5× [^35S]-GTPγS (200 p.m. final) (Perkin Elmer, catalog number NEG030X250UC) in basic assay buffer (20 mM HEPES/10 mM MgCl2/100 mM NaCl/1 mM EDTA, pH 7.4) and then plates were resealed for an additional 40-min incubation at room temperature with gentle agitation. The experiment was terminated by centrifugation of the plates at 1000 rpm for 3 min using an Eppendorf (Hamburg, Germany) 5810R centrifuge and read on the MicroBeta2 microplate scintillation counter. Data were analyzed as raw counts per 40 s per well as collected from the MicroBeta2 counter. Raw counts were analyzed with GraphPad Prism version 8.0.0 using nonlinear regression to generate concentration response curves.

[3] = target: T1, human S1P1; experiment: [^35S]-GTPγS binding; assay type: biochemical; conditions: mean ± SEM; for Human S1P1 IA: intrinsic activity relative to maximal S1P response (100%); for EC50: [^35S]-GTPγS binding, CHO cell membranes
Source text: as §1, §2

[4] = target: T3, human S1P4 (Homo sapiens, UniProt O95977); experiment: [^35S]-GTPγS binding; assay type: biochemical; conditions: mean ± SEM; for EC50: [^35S]-GTPγS binding, CHO cell membranes; for Human S1P4 IA: intrinsic activity relative to maximal S1P response (100%)
T3 construct: membrane preparation
T3 sequence (O95977 1-384): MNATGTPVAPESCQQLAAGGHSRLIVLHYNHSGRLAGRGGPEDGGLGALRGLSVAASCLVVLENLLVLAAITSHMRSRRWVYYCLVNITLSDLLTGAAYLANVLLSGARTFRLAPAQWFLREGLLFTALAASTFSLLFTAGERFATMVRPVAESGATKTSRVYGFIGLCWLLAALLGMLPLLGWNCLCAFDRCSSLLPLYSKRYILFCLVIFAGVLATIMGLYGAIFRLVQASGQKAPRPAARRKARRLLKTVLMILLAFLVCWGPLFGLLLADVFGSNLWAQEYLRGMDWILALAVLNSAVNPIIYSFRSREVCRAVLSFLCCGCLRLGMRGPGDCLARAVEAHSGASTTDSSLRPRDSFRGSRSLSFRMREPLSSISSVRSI
Source text: as §1, §2

[5] = target: T4, human S1P5 (Homo sapiens, UniProt Q9H228); experiment: [^35S]-GTPγS binding; assay type: biochemical; conditions: for GTPγS potency for human S1P5 weaker than that for S1P1: S1P5 versus S1P1 EC50; for EC50: [^35S]-GTPγS binding, CHO cell membranes; for EC50 / Human S1P5 IA: mean ± SEM; for Human S1P5 IA: intrinsic activity relative to maximal S1P response (100%)
Source text: as §1, §2

[6] = target: T5, human S1P2 (Homo sapiens, UniProt O95136); experiment: [^35S]-GTPγS binding; assay type: biochemical; conditions: mean ± SEM; for EC50: [^35S]-GTPγS binding, CHO cell membranes; for Human S1P2 IA: intrinsic activity relative to maximal S1P response (100%)
T5 construct: membrane preparation
Source text: as §1, §2

[7] = target: T4, human S1P5; experiment: [^3H]-ozanimod competition radioligand binding
Source text: as §1
(§3) Assay plates were sealed and incubated at room temperature with gentle agitation for 60 min before filtration as described above.
(§4) Data were again analyzed as raw counts per 60 s per well collected from the MicroBeta2 counter.

[8] = target: T1, human S1P1; experiment: [^3H]-ozanimod competition radioligand binding
Source text: as §1, §3, §4

[9] = target: T4, human S1P5; experiment: Saturation radioligand binding with [^3H]-ozanimod; conditions: CHO cell membranes expressing human S1P5, saturation binding
Source text: as §1, with “Cell pellets were then resuspended and homogenized in membrane preparation buffer (10 mM HEPES/10 mM EDTA, pH 7.4) using a Polytron PT 1200E homogenizer (Kinematica, Luzern, Switzerland). To collect the membrane pellet, cell homogenates were centrifuged at 48,000 × g at 4°C for 30 min. After discarding the supernatant, the pellet was rehomogenized and recentrifuged as described above. The final pellet was collected and homogenized in ice-cold resuspension buffer (10 mM HEPES and 0.1 mM EDTA, pH 7.4).” left out
Filter plates were prepared by adding 80 μl/well of 0.3% poly (ethyleneimine) and incubating for 60 min at room temperature before washing with 150 ml of filtration buffer (50 mM Tris HCl [pH 7.4], 5 mM MgCl2, and 1 mM EDTA) using a FilterMate-96 harvester. […] Filter plates were then allowed to air dry before the addition of 50 μL/well of MicroScint-20 cocktail, plate sealing, and reading on a MicroBeta2 microplate scintillation counter. […]

T1 sequence (P21453 whole entry): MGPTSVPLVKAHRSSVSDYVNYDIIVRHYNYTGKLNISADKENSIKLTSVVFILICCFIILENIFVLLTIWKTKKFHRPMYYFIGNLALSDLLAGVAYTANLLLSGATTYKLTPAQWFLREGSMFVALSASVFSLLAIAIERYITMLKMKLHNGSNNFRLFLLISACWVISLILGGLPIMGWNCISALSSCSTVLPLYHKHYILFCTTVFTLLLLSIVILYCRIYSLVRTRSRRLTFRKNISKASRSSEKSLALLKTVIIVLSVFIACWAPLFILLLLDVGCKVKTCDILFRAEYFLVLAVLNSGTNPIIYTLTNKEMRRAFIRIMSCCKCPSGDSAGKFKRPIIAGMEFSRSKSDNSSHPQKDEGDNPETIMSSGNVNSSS
T4 sequence (Q9H228 whole entry): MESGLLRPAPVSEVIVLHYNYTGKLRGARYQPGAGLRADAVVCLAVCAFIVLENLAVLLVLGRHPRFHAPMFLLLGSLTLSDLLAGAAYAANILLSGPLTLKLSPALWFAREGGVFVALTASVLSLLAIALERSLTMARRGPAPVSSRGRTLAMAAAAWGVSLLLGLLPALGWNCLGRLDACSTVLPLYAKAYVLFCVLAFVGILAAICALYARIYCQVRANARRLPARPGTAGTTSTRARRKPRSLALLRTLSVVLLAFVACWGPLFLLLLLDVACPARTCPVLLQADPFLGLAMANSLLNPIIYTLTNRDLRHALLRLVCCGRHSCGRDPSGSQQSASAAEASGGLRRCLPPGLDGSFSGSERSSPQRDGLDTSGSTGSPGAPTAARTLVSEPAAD
T5 sequence (O95136 whole entry): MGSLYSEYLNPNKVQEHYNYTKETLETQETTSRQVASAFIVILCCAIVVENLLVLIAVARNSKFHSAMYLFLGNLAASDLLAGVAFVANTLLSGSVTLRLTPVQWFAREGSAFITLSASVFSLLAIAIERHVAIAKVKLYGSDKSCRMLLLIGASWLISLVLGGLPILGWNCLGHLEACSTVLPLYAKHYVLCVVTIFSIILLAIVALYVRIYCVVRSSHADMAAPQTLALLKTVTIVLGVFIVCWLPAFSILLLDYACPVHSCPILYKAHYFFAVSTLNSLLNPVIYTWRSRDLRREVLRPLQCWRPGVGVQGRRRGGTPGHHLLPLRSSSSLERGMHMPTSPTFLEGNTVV
T2 sequence (Q99500 whole entry): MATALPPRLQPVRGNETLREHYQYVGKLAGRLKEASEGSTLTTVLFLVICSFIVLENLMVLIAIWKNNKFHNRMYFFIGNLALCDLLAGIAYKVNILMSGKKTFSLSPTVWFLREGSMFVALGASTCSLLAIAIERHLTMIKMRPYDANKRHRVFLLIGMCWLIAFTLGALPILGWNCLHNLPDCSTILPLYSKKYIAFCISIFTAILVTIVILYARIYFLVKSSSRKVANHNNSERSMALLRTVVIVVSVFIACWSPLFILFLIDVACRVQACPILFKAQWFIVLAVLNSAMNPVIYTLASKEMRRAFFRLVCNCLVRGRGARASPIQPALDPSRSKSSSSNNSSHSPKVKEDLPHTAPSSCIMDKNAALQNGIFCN

For `CC(C)Oc1ccc(-c2nc(-c3cccc4c3CC[C@@H]4NCCO)no2)cc1C#N` [Ozanimod], the Emax [1] was 68.7 ± 3.5%, the EC50 [2] was over 1110 nM and the “Human S1P3 IA” value [2] was 89.4 ± 7.4%. The “Human S1P1 IA” value [3] was 85 ± 1%, the EC50 [4] was 1490 ± 306 nM and the “Human S1P4 IA” value [4] was 39.4 ± 5.3%. The “GTPγS potency for human S1P5 weaker than that for S1P1” value [5] was “approximately 10 fold”, the EC50 [5] was 5.84 ± 0.51 nM and the “Human S1P5 IA” value [5] was 97 ± 3.7%. For the same compound, the EC50 [6] was over 10 µM, the “Human S1P2 IA” value [6] was 34.8 ± 1% and the Ki [7] was 1.93 ± 0.07 nM.
Compound `CCC/N=C1\S/C(=C\c2ccc(OC[C@H](O)CO)c(Cl)c2)C(=O)N1c1ccccc1C` [Ponesimod] has an Emax [1] of 61.2 ± 1.6%, an EC50 [1] of 2.66 ± 0.42 nM and an EC50 [2] of 89.5 ± 14.3 nM. The “Human S1P3 IA” value [2] was 82.1 ± 7.5%, the EC50 [3] was 3.42 ± 1.17 nM and the “Human S1P1 IA” value [3] was 85.8 ± 6.2%. For the same compound, the EC50 [4] was over 10000 nM, the “Human S1P4 IA” value [4] was 26.5 ± 2.5% and the “GTPγS potency for human S1P5 weaker than that for S1P1” value [5] was “approximately 10 fold”. For the same compound, the EC50 [5] was 43.2 ± 12 nM, the “Human S1P5 IA” value [5] was 92.9 ± 9.8% and the EC50 [6] was over 10 µM. For the same compound, the “Human S1P2 IA” value [6] was “NR (NR indicates no response where the maximal response was less than 10% of that of S1P)”, the Ki [8] was 9.37 ± 1.31 nM and the Ki [7] was 17.4 ± 4.32 nM.
With `CCCCCCCCCCCCC/C=C/[C@@H](O)[C@@H](N)COP(=O)(O)O` [S1P, sphingosine 1-phosphate] the Ki [8] was 2.33 ± 0.17 nM, the “displacement of specific [^3H]-ozanimod binding, S1P1” value ([8]; result in words) was “completely displaced” and the “displacement of specific [^3H]-ozanimod binding, S1P5” value ([7]; result in words) was “completely displaced”.
With `CCc1cc(/C(C)=N/OCc2ccc(C3CCCCC3)c(C(F)(F)F)c2)ccc1CN1CC(C(=O)O)C1` [Siponimod] the Emax [1] was 68.6 ± 9.2%, the EC50 [1] was 9.3 ± 2.79 nM and the EC50 [2] was over 1110 nM. The “Human S1P3 IA” value [2] was 90.7 ± 2.5%, the EC50 [3] was 0.46 ± 0.05 nM and the “Human S1P1 IA” value [3] was 82.1 ± 0.9%. For the same compound, the EC50 [4] was 384 ± 67.8 nM, the “Human S1P4 IA” value [4] was 81.5 ± 2.4% and the EC50 [5] was 0.3 ± 0.02 nM. The “Human S1P5 IA” value [5] was 102 ± 9.1%, the EC50 [6] was over 10 µM and the “Human S1P2 IA” value [6] was “NR (NR indicates no response where the maximal response was less than 10% of that of S1P)”. It also gave a Ki [8] of 0.74 ± 0.09 nM and a Ki [7] of 0.43 ± 0.08 nM.
With `[3H]CC([3H])(C)Oc1ccc(-c2nc(-c3cccc4c3CC[C@@H]4NCCO)no2)cc1C#N` (stereo partly drawn) [[^3H]-ozanimod] the Kd [9] was 3.13 nM.
